Data taken from ChEMBL document CHEMBL1127625, “Modulation of the kynurenine pathway in search for new neuroprotective agents. Synthesis and preliminary evaluation of (m-nitrobenzoyl)alanine, a potent inhibitor of kynurenine-3-hydroxylase” (J Med Chem, 1994).

Columns and labels:
[1] = biological target: Kynurenine 3-monooxygenase (Rattus norvegicus, UniProt O88867); test: Ability to inhibit kynurenine-3-hydroxylase was determined in a competitive inhibition assay.
Kynureninase = biological target: T1, Kynureninase (Rattus norvegicus, UniProt P70712); test: Ability to inhibit kynureninase was determined in a competitive inhibition assay.
T1 sequence (P70712 whole entry): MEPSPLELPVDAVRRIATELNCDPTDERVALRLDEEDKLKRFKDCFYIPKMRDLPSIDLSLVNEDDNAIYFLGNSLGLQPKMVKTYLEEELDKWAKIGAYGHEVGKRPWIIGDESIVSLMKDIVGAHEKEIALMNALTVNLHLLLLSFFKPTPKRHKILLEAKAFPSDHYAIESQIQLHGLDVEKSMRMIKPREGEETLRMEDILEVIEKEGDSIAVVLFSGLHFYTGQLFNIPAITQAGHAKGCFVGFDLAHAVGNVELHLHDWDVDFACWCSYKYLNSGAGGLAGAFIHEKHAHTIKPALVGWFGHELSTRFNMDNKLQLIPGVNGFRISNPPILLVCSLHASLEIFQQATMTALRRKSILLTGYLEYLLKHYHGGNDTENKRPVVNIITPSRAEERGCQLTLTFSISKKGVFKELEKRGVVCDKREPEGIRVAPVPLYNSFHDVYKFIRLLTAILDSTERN

[2] = biological target: Kynurenine 3-monooxygenase (Rattus norvegicus) (UniProt O88867); test: Differences in inhibition of kynurenine-3-hydroxylase by m-NBA versus compound is determined
Mus musculus [3] = test: Sedative and anticonvulsant effects at dose 200 mg/kg, administered intraperitoneally; value expressed as clonic /tested =6/13; type: functional; conditions: route intraperitoneal
Rattus norvegicus [4] = test: Effect on kynurenic acid (KYNA) content in rat brain at dose 400 mg/kg administered intraperitoneally; type: functional; conditions: route intraperitoneal
Mus musculus [5] = test: Sedative and anticonvulsant effects at dose 400 mg/kg, administered intraperitoneally; value expressed as death /tested =2/6; type: organism-based; set-up: dose 400 mg/kg, route intraperitoneal; conditions: in vivo, ip
Rattus norvegicus [6] = test: Effect on kynurenic acid (KYNA) content in rat blood at dose 400 mg/kg administered intraperitoneally; type: functional; conditions: route intraperitoneal
Mus musculus [7] = test: Sedative and anticonvulsant effects at dose 200 mg/kg, administered intraperitoneally; value expressed as tonic /tested =1/13; type: functional; conditions: route intraperitoneal
Rattus norvegicus [8] = test: Effect on kynurenic acid (KYNA) content in rat liver at dose 400 mg/kg administered intraperitoneally; type: functional; conditions: route intraperitoneal
Rattus norvegicus [9] = test: Effect on […] (KYN) content in rat liver at dose 400 mg/kg administered intraperitoneally; type: functional; conditions: route intraperitoneal
Mus musculus [10] = test: Sedative and anticonvulsant effects at dose 200 mg/kg, administered intraperitoneally; value expressed as death /tested =0/13; type: ADME, organism-based; set-up: dose 200 mg/kg, route intraperitoneal; conditions: in vivo, ip
Mus musculus [11] = test: Sedative and anticonvulsant effects at dose 400 mg/kg, administered intraperitoneally; value expressed as tonic /tested =2/6; type: functional; conditions: route intraperitoneal
Mus musculus [12] = test: Sedative and anticonvulsant effects at dose 400 mg/kg, administered intraperitoneally; value expressed as clonic /tested =4/6; type: functional; conditions: route intraperitoneal
Rattus norvegicus [13] = test: Effect on […] (KYN) content in rat brain at dose 400 mg/kg administered intraperitoneally; type: functional; conditions: route intraperitoneal
Rattus norvegicus [14] = test: Effect on […] (KYN) content in rat blood at dose 400 mg/kg administered intraperitoneally; type: functional; conditions: route intraperitoneal

Chain of Kynurenine 3-monooxygenase (O88867 whole entry): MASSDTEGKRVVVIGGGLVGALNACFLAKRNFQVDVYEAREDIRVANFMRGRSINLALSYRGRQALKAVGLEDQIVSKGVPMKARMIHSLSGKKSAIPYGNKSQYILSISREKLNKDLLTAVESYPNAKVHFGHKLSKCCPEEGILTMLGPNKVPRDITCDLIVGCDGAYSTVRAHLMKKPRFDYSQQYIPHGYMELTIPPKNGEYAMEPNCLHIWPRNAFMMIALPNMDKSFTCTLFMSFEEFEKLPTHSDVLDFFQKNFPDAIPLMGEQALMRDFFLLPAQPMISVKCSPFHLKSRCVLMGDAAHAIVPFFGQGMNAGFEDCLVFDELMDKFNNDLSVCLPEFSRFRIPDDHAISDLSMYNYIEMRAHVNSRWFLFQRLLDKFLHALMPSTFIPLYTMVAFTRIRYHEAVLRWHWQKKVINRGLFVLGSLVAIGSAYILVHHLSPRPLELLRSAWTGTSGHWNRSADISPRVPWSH
Chain of Kynurenine 3-monooxygenase (Rattus norvegicus) (O88867 whole entry, looked up): as the sequence (O88867 whole entry) above

Row | IC50 [1] | IC50 (Kynureninase) | -Log IC50/IC50 [2] | SMILES | Clonic (Mus musculus [3]) | Effect (Rattus norvegicus [4]) | Death (Mus musculus [5]) | Effect (Rattus norvegicus [6]) | Tonic (Mus musculus [7]) | Effect (Rattus norvegicus [8]) | Effect (Rattus norvegicus [9]) | Death (Mus musculus [10]) | Tonic (Mus musculus [11]) | Clonic (Mus musculus [12]) | Effect (Rattus norvegicus [13]) | Effect (Rattus norvegicus [14])
1 | 300 µM | 900 µM | 2.52 | NC(CC(=O)c1ccc([N+](=O)[O-])cc1)C(=O)O (configuration not stated) |  |  |  |  |  |  |  |  |  |  |  | 
2 | 2000 µM | 100 µM | 2.94 | NC(CC(=O)c1ccccc1[N+](=O)[O-])C(=O)O (configuration not stated) [(ortho-nitrobenzoyl)alanine] |  |  |  |  |  |  |  |  |  |  |  | 
3 | 900 µM | 800 µM | 2.89 | NC(CC(=O)c1cccnc1)C(=O)O (configuration not stated) [NICOTINOYLALANINENAL] |  |  |  |  |  |  |  |  |  |  |  | 

Row | SMILES | IC50 [1] | IC50 (Kynureninase) | -Log IC50/IC50 [2] | Clonic (Mus musculus [3]) | Effect (Rattus norvegicus [4]) | Death (Mus musculus [5]) | Effect (Rattus norvegicus [6]) | Tonic (Mus musculus [7]) | Effect (Rattus norvegicus [8]) | Effect (Rattus norvegicus [9]) | Death (Mus musculus [10]) | Tonic (Mus musculus [11]) | Clonic (Mus musculus [12]) | Effect (Rattus norvegicus [13]) | Effect (Rattus norvegicus [14])
4 | NC(CC(=O)c1cccc([N+](=O)[O-])c1)C(=O)O (configuration not stated) |  | 100 µM |  | 6 | 150 pmol/g | 2 | 120 pmol/g | 1 | 250 pmol/g | 4000 pmol/g | 0 | 2 | 4 | 4000 pmol/g | 16000 pmol/g
